Activity calls are given as the source filed them. The rule behind the calls is not given here.
Key:
[1] = target: T1, Polyunsaturated fatty acid 5-lipoxygenase (Homo sapiens, UniProt P09917); test: Inhibition of recombinant human 5-lipoxygenase using arachidonic acid as substrate preincubated for 10 mins followed by susbtrate addition and measured after 10 mins by reverse phase HPLC method
T1 sequence (P09917 whole entry): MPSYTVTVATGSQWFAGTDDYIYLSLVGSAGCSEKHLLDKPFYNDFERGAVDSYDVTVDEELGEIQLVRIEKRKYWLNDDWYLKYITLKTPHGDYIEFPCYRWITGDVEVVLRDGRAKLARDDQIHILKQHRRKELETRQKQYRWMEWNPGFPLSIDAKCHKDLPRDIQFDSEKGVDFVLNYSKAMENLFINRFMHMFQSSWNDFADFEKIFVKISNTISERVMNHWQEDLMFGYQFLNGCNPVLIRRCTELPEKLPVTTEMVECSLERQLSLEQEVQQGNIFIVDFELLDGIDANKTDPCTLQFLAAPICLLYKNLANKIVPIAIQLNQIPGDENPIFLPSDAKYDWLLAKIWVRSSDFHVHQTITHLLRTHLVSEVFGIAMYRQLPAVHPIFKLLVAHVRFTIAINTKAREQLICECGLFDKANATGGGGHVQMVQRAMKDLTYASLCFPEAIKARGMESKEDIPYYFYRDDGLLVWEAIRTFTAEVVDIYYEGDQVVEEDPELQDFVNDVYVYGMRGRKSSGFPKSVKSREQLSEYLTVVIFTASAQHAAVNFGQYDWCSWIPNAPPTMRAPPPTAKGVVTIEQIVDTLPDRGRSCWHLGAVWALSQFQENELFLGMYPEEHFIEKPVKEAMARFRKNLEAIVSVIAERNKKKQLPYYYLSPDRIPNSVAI

[2] = target: T2, Polyunsaturated fatty acid 5-lipoxygenase (Homo sapiens) (UniProt P09917); test: Inhibition of recombinant human 5-lipoxygenase at <10 uM using arachidonic acid as substrate preincubated for 10 mins followed by susbtrate addition and measured after 10 mins by reverse phase HPLC method
T2 sequence (whole entry): T1 sequence (P09917 whole entry)

Compound | IC50 [1] | inhibition [2]
O=C(NCCCC[C@H]1CN=C(c2ccccc2O)N1)c1cccc(O)c1O | 1.5 µM | –
NC[C@H](CCCCNC(=O)c1c(O)cccc1F)NC(=O)c1cccc(O)c1O | > 10 µM | inactive
NC[C@H](CCCCNC(=O)c1cccc(O)c1O)NC(=O)c1c(O)cccc1F | 9.3 µM | –
O=C(NCCCC[C@H]1CN=C(c2cccc(O)c2O)N1)c1cccc(O)c1O | 0.9 µM | –
O=C(NCCCC[C@H]1CN=C(c2c(O)cccc2F)N1)c1cccc(O)c1O | 2.2 µM | –
NC[C@H](CCCCNC(=O)c1ccccc1O)NC(=O)c1ccccc1O | > 10 µM | inactive
O=C(NCCCC[C@@H](CO)NC(=O)c1cccc(O)c1O)c1cccc(O)c1O | 1.9 µM | –
NC[C@H](CCCCNC(=O)c1cccc(O)c1O)NC(=O)c1ccccc1O | 5.6 µM | –
O=C(NCCCC[C@H]1CN=C(c2ccccc2O)N1)c1ccccc1O | > 10 µM | –
NC[C@H](CCCCNC(=O)c1ccccc1O)NC(=O)c1cccc(O)c1O | 10 µM | –
O=C(NCCCC[C@H]1CN=C(c2cccc(O)c2O)N1)c1c(O)cccc1F | 1.1 µM | –
O=C(NCCCC[C@H]1CN=C(c2cccc(O)c2O)N1)c1ccccc1O | 2.2 µM | –
NC[C@H](CCCCNC(=O)c1cccc(O)c1O)NC(=O)c1cccc(O)c1O | 1.4 µM | –
